Test results as given in patent US20240285785A1, “TARGETING SORTILIN” (priority 2022, published 2024).
Where a SMILES comes first, the peptide text is derived from it. [ ]: non-standard residue; d: D form. The star is where a group is joined. Dolaproine = CO[C@@H]([C@@H]1CCCN1)[C@@H](C)C(=O)O; Dil = CC[C@H](C)[C@H](NC)[C@@H](CC(=O)O)OC; X1 = C[C@@H](N*)[C@@H](O)c1ccccc1; NMeV = CN[C@H](C(=O)O)C(C)C

Experiments:
MDA-MB-231 tumor cells = assay: MDA-MB-231 murine xenograft efficacy model; assay type: in vivo, BALB/c Nude mice
Description: Murine xenograft experiments were conducted at WuXi AppTec and/or Charles River Laboratories and the care and use of animals was conducted in accordance with the regulations of the Association for Assessment and Accreditation of Laboratory Animal Care (AAALAC). MDA-MB-231 tumor cells (ATCC, Manassas, VA, cat #HTB-26) were grown and maintained in L15 medium supplemented with 10% heat inactivated fetal bovine serum, 1% Antibiotic-Antimycotic, and L-glutamine (2 mM) at 37° C. in an atmosphere in 5% CO2, 95% air. BALB/c Nude, female, 6-8 weeks, weighing approximately 18-22 g were purchased from Vital River Laboratory Animal Technology Co., LTD. Mice were inoculated subcutaneously at the right flank with MDA-MB-231 tumor cells (e.g., triple negative breast cancer cells) (10×10^6) in 0.2 mL of PBS with Matrigel (1:1) for tumor development. Animals were randomized and treatment was started when the average tumor volume reached approximately 150-200 mm^3 for the efficacy study. Dosing volume was adjusted based on body weight and was administered at 10 ml/Kg. […] Free MMAE payload was also tested, and similarly dissolved in 25 mM Histidine 10% sucrose pH 7 and one or more of the following doses, 0.6, 0.06 mg/kg, were administered to the mice i.v. at a QW×4 schedule. Tumor sizes were measured twice weekly in two dimensions using a caliper, and the volume in mm^3 calculated using the formula: V=0.5 a×b^2, where a and b are the long and short diameters of the tumor, respectively. TGI was calculated for each group using the formula: TGI (%)=[1−(Ti−T0)/(Vi−V0)]×100; where Ti is the average tumor volume of a treatment group on a given day, T0 is the average tumor volume of the treatment group on the first day of treatment, Vi is the average tumor volume of the vehicle control group on the same day with Ti, and V0 is the average tumor volume of the vehicle group on the first day of treatment.

[1] = Dynamic light scattering (DLS) solubility/aggregation; assay type: physicochemical; details: working concentrations (250 nM, PBS, pH 7.4)
Description: Samples were spun down on a bench top centrifuge, 15 minutes, 15,000 rpm, room temperature, to pellet any aggregated peptide/dust before taking a measurement. Visual inspection of the tubes was used to identify if any large pellets were formed, which is indicative of large aggregates. […] The plate was then transferred and read on the DLS instrument (Wyatt Technology DynaPro Plate Reader III) at 25° C.

[2] = Maximum tolerated dose (MTD) study; assay type: in vivo, BALB/c Nude mice; details: 10 mg/kg single i.v. dose
Description: BALB/c Nude mice, female, 6-8 weeks, weighing approximately 18-22 g were purchased from the Shanghai SLAC Laboratory Animal Co., LTD. MTD studies were conducted at WuXi AppTec and the care and use of animals was conducted in accordance with the regulations of the Association for Assessment and Accreditation of Laboratory Animal Care (AAALAC). Two MTD studies were performed (a) a low dose study with doses ranging from 0.1, 0.5, 1 and 3 mg/kg and (b) a high dose study with doses ranging from 3, 5, 10 mg/kg. Dosing volume was determined based on body weight (10 ul/g) and PDCs were dissolved in 25 mM Histidine 10% sucrose pH 7 and administered i.v. at a single dose at day 0. The treatment and observation were conducted up to 7 days and MTD was defined by ≥20% body weight loss. Body weights were measured daily, death and observed clinical signs were recorded.
Doses of 3, 5, and 10 mg/kg were administered. MTD was defined by ≥20% body weight loss and body weight measured daily.

[3] = Murine serum stability assay; assay type: in vitro ADME, mouse (CD-1); details: male, CD-1, mouse, mouse serum, male CD-1 mouse serum, 37° C.; read-out: Murine serum stability assay, T1/2
Description: Serum was drawn from male CD-1 mice by Pharmidex. Lyophilized peptides were solubilized in DMSO and then further diluted into male mouse (CD-1) serum at 37° C. in duplicates. The reaction was incubated at 37° C. and samples extracted at 6 time points: 0, 0.16, 0.5, 1, 3, and 6 hrs. Acetonitrile (ACN) with internal standard (tolbutamide) was added to stop the incubation. Samples were centrifuged, and the supernatant was analyzed by HPLC-MS/MS for the parent compound.

For `CC[C@H](C)[C@@H]([C@@H](CC(=O)N1CCC[C@H]1[C@H](OC)[C@@H](C)C(=O)N[C@H](C)[C@@H](O)c1ccccc1)OC)N(C)C(=O)[C@@H](NC(=O)[C@@H](NC)C(C)C)C(C)C` [MMAE, Monomethyl auristatin E, reference compound] (H-[NMeV]V[Dil][Dolaproine]-X1), the body weight variation (MDA-MB-231 tumor cells; Example 6, PDC 3, 1, 0.3 mg/kg, free MMAE at equivalency to 3 mg/kg PDC) was “body weight fluctuations corresponding to treatment times” and the body weight loss (MDA-MB-231 tumor cells; Example 8, PDC 3 mg/kg, free MMAE 0.6 mg/kg, i.v. QW×4) was “body weight fluctuations corresponding to treatment times”.

For `CC(C)C[C@H](NC(=O)[C@H](CC(C)C)NC(=O)[C@H](CCC(N)=O)NC(=O)[C@H](CCCNC(=N)N)NC(=O)[C@H](CC(C)C)NC(=O)[C@H](C)NC(=O)[C@@H]1CCCN1C(=O)[C@H](CC(=O)O)NC(=O)[C@H](CCCNC(=N)N)NC(=O)[C@H](CC(C)C)NC(=O)[C@@H]1CCCN1C(=O)[C@H](C)NC(=O)[C@H](CC(=O)O)NC(=O)[C@H](Cc1c[nH]c2ccccc12)NC(=O)[C@H](CCCNC(=N)N)NC(=O)[C@@H]1CCCN1C(=O)[C@H](C)N)C(=O)O` [PRGN_WT], the “solubility (DLS)” value [1] was “good solubility”.

With `CC[C@H](C)[C@@H]([C@@H](CC(=O)N1CCC[C@H]1[C@H](OC)[C@@H](C)C(=O)N[C@H](C)[C@@H](O)c1ccccc1)OC)N(C)C(=O)[C@@H](NC(=O)[C@H](C(C)C)N(C)C(=O)OCc1ccc(NC(=O)[C@H](CCCNC(N)=O)NC(=O)[C@@H](NC(=O)CCCC(=O)NCCC(=O)N(C)CC(=O)N(C)CC(=O)N(C)CC(=O)N(C)CC(=O)N[C@@H](CC(=O)O)C(=O)N[C@@H](CC(=O)O)C(=O)N2CCC[C@H]2C(=O)N[C@@H](CCCNC(=N)N)C(=O)N[C@@H](C)C(=O)N2CCC[C@H]2C(=O)N[C@@H](Cc2c[nH]c3ccccc23)C(=O)N2CCC[C@H]2C(=O)N[C@@H](C)C(=O)N[C@@H](CC(C)C)C(=O)N[C@@H](CCC(N)=O)C(=O)N[C@@H](CCCNC(=N)N)C(=O)N[C@@H](CC(C)C)C(=O)N[C@@H](C)C(=O)N[C@@H](CC(C)C)C(=O)N[C@@H](CCCNC(=N)N)C(=O)N[C@@H](CC(C)C)C(=O)O)C(C)C)cc1)C(C)C` [PRGN_RL_PDC] the “toxicity” value [2] was “mild toxicity”.

Compound `CC(C)CC[C@H](NC(=O)[C@H](CCC(C)C)NC(=O)[C@H](CCC(N)=O)NC(=O)[C@H](CCCNC(=N)N)NC(=O)[C@H](CC(C)C)NC(=O)[C@H](C)NC(=O)[C@@H]1CCCN1C(=O)[C@H](CC(=O)O)NC(=O)[C@H](CCCNC(=N)N)NC(=O)[C@H](CC(C)C)NC(=O)[C@@H]1CCCN1C(=O)[C@H](C)NC(=O)[C@H](CC(=O)O)NC(=O)[C@H](Cc1c[nH]c2ccccc12)NC(=O)[C@H](CCCNC(=N)N)NC(=O)[C@@H]1CCCN1C(=O)[C@H](C)N)C(=O)O` [Arb-SAR-N22] has a half-life [3] of 16.7 min.
